Test results reported in patent US7705016B2, “Regulation of food intake by modulation of long-chain fatty acyl-CoA levels in the hypothalamus” (Albert Einstein College of Medicine of Yeshiva University, priority 2003, dated 2010).
“Also recorded” adds a separate entry of the source.

Biological target: T1, hypothalamic CPT1 (Rattus norvegicus, UniProt P32198)
T1 sequence (P32198 1-773): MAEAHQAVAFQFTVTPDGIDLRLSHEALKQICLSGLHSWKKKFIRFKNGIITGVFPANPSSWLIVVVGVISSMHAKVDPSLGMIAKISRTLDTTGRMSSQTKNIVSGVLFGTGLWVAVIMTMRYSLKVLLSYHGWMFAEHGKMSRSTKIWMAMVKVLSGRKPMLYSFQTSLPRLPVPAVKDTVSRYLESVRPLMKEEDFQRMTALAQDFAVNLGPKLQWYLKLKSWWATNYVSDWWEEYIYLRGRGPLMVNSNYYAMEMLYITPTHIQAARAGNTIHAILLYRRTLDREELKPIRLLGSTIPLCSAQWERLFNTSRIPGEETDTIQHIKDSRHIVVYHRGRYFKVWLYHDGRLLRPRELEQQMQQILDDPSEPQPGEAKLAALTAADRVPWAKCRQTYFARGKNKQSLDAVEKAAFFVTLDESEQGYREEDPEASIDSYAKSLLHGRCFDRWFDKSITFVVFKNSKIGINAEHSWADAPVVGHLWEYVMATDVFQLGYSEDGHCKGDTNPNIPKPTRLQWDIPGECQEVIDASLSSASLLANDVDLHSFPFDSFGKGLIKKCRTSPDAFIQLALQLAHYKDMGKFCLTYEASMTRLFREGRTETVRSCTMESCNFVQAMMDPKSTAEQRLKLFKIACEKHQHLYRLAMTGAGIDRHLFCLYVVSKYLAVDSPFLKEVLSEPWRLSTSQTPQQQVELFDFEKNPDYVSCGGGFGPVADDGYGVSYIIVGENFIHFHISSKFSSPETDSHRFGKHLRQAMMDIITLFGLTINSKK
Assay: Food intake after ICV bolus of CPT1 antagonists
Type: in vivo
Design: CPT1 activity was measured in the particulate fraction of protein extracts from animals treated with ICV control injections; from tissue; host or cells: hypothalamus (arcuate nucleus) of male Sprague-Dawley rats, in vivo or ex vivo
Details: for decrease in daily food intake: 24-48 h after single ICV administration, ST 1326 high dose; for change in food intake from baseline: ST 1326 high dose (25 pmoles); for effect on food intake / feeding behavior: single ICV injection
Procedure: Hypothalamic inhibition of CPT1 decreases food intake. First we examined whether central administration of molecular and pharmacological antagonists of CPT1 modulates feeding behavior in conscious rats (FIG. 3). […] Food intake was monitored in metabolic cages before and up to 72 h after the ICV injections (Obici et al., 2002a). […] The marked effect of ICV CPT1L-Ribo on food intake was significant when compared with either control vector or with an unrelated control ribozyme (FIG. 3c). […] The anorectic effect of central CPT1 inhibition lasted for at least 48 h following a single ICV administration. These decreases in food intake were significant compared with both baseline and vehicle/control (FIG. 3a-e). The changes from baseline induced by CPT1 inhibition were statistically significant at 24 h (−17.6±2.0 g and −12.4±3.9 g), and 48 h (−13.4±1.8 g and −7.8±3.8 g) following ICV administration of CP1L-Ribo and high dose ST 1326, respectively (FIGS. 3b and e). This represented a ˜50% decrease in daily food intake, which returned toward baseline values by 72 h.
Animal preparation for in vivo experiments. We studied ninety-three 10-week old male Sprague-Dawley rats (Charles River Breeding Laboratories, Wilmington, Mass.). Rats were housed in individual cages and subjected to a standard light-dark cycle. Three weeks prior to the in vivo studies, we placed a chronic catheter in the third cerebral ventricle by stereotaxic surgery (Obici et al., 2002a; Obici et al., 2001; Liu et al., 1998). One week before the pancreatic-insulin clamp protocols, we placed additional catheters in the right internal jugular and left carotid artery (Obici et al., 2001; Liu et al., 1998). All ICV solutions were dissolved in artificial cerebral spinal fluid (aCSF). Food intake was monitored daily.
Effect of central inhibition of CPT1 and food intake. We examined the effects of ICV CPT1L-Ribo and ST 1326 on food intake. Three-hours before the start of the dark cycle, CPT1L-Ribo or vector control, ST 1326 or ST 1340 was injected as a bolus via indwelling catheters implanted in the third cerebral ventricle. In the feeding studies, rats received a single bolus injection of 25 pmoles of ST1340 or two different doses (5 and 25 pmoles) of ST1326. Rats were adapted to the metabolic cages and their daily food intake had been constant (changes <10%) for a minimum of three consecutive days preceding the ICV injections. Food intake was continuously monitored for the following 72 h.

[1] = 24 h after single ICV administration
[2] = 48 h after single ICV administration

Row | inhibition of daily food intake (5 pmoles single ICV injection) | food intake on day 3 compared to control group (25 pmoles (high dose) single ICV injection, day 3) | inhibition of daily food intake (25 pmoles single ICV injection) | Compound | decrease in daily food intake [%] | change in food intake from baseline [1] [g] | change in food intake from baseline [2] [g] | effect on food intake / feeding behavior | average food intake (first night following ICV administration) [gr./day]
1 | statistically significant on day 1 and 2 | significantly lowered food intake | statistically significant on day 1 and 2 | CCCCCCCCCCCCCCNC(=O)N[C@H](CC(=O)[O-])C[N+](C)(C)C [ST1326, (R)-N-(tetradecylcarbamoyl)-aminocarnitine] | ~50 | -12.4 ± 3.9 | -7.8 ± 3.8 | markedly inhibited food intake | –
2 | – | – | – | CPT1L-Ribo: plasmid (pTarget, CMV promoter) expressing a hammerhead ribozyme that specifically cleaves rat CPT1L mRNA, complexed to PEI for ICV injection (DNA CUGUACCAAAGAGCUGUAGAGUCCGUGAGGACGAAACGCCGCUCACAAUG) | ~50 | -17.6 ± 2.0 | -13.4 ± 1.8 | significantly suppressed from day 1 to day 3; also recorded: rapid onset of anorexia | 13.0±1.9
